Data taken from ChEMBL document CHEMBL3882736, “Modulation microtubules diseases; antiproliferative agents; antiinflamamtory agents” (2011).

What was measured:
[1] = Cytotoxicity against human DU145 cells assessed as growth inhibition at 20 uM after 40 hrs by MTT assay relative to control; type: functional; conditions: DU-145, 40 h, read-out: GI
Outline: (§1)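 Growth inhibition was measured against control in human tumour cells taken in late log phase, each in its own medium with 10% FBS. Cells (90 µL per well, 1.1× final, 50000 to 200,000 cell/mL) were added to 10 µL of compound at 10× final in 96-well plates and incubated 40 hr at 37° C., 5% CO2. Readout used MTT for 6 hours, overnight lysis with SDS/HCl and absorbance at 590 nm.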

Tubulin (Homo sapiens) = Tubulin (Homo sapiens) (UniProt P68371+Q9H4B7+P0DPH7+P68366+Q13509+Q71U36+P04350+Q3ZCM7+P07437+P68363+Q9BQE3+Q6PEY2+Q13885+Q9BVA1+Q9BUF5); experiment: Inhibition of tubulin (unknown origin) polymerization at 50 uM by turbidometric method relative to control; type: protein-complex assay
Outline: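 Compound was incubated at 0° C. with microtubule protein whose origin is not stated. In cuvettes, 1 mM GTP was added and the temperature raised to 37° C. to start polymerisation, and a thermostatically controlled spectrophotometer followed absorbance at 340 nm over time. The values give inhibition of polymerisation as percent relative to control.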

[2] = target: T1, Tyrosine-protein kinase JAK3 (Homo sapiens) (UniProt P52333); experiment: Inhibition of TEL-fused JAK3 kinase domain (2520 to 3469 nucleotide) (unknown origin) expressed in mouse BaF3 cells assessed as decrease in cell growth at 20 uM after 40 hrs by MTT assay relative to control; type: cell-based
T1 sequence (whole entry): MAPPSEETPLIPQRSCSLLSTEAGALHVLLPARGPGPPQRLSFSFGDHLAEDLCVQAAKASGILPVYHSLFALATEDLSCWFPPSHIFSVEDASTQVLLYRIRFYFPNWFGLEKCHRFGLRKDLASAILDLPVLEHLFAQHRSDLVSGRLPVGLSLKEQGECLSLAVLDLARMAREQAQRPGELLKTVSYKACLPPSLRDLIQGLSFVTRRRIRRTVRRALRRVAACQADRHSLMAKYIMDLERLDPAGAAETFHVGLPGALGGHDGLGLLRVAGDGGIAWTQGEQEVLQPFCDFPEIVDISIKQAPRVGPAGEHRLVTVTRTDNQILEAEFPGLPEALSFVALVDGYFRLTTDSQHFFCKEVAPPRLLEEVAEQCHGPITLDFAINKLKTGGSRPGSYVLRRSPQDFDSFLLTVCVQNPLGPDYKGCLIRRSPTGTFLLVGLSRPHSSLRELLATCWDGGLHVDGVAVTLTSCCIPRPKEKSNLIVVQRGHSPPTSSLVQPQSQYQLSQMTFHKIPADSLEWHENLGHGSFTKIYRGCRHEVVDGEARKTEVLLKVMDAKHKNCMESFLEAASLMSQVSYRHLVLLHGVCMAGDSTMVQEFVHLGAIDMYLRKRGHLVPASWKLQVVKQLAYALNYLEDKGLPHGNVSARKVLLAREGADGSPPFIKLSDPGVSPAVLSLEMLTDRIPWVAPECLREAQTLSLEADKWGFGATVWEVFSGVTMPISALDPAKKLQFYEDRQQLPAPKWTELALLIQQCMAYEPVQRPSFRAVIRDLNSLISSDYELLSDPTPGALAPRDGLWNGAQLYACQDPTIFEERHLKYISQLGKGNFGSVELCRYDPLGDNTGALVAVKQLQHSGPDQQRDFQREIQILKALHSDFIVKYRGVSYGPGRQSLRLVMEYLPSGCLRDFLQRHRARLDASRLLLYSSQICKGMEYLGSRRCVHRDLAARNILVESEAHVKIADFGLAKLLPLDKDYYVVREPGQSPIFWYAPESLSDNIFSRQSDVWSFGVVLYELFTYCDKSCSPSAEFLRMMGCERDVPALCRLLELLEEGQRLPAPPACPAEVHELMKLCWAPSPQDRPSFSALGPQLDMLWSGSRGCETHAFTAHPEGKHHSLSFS

[3] = target: Tyrosine-protein kinase JAK2 (Homo sapiens) (UniProt O60674); experiment: Inhibition of TEL-fused JAK2 kinase domain (2994 to 3914 nucleotide) (unknown origin) expressed in mouse BaF3 cells assessed as decrease in cell growth at 20 uM after 40 hrs by MTT assay relative to control; type: cell-based
Tyrosine-protein kinase JAK2 (Homo sapiens), sequence (O60674 whole entry, the tested form may be a part): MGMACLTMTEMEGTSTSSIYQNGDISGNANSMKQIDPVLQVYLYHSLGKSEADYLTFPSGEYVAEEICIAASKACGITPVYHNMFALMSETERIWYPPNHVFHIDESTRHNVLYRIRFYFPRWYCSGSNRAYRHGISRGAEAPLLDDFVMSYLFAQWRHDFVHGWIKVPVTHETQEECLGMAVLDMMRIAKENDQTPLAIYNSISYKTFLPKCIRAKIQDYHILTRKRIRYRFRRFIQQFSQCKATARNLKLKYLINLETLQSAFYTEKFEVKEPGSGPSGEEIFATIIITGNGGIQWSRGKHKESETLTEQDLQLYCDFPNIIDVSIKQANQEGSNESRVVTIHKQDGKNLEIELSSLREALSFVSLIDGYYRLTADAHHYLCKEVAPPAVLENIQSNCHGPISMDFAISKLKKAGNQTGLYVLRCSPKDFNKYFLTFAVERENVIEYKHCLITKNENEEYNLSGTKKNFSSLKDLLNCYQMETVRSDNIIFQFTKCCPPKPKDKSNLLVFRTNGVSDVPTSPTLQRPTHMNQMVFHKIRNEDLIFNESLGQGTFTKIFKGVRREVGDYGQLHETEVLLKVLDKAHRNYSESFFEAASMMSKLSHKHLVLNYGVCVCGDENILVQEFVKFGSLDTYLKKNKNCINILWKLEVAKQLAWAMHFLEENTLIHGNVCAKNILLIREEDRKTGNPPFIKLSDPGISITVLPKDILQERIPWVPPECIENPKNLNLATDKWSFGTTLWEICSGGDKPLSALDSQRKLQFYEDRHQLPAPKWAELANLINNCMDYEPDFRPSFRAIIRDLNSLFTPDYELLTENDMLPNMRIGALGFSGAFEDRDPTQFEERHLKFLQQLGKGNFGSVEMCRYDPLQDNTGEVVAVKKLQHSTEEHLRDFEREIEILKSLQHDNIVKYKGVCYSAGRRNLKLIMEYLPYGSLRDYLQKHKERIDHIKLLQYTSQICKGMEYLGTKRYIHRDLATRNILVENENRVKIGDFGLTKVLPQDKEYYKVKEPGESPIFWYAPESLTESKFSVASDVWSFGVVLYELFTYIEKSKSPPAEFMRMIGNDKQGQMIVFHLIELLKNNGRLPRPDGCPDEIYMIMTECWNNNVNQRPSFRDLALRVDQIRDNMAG

[4] = Cytotoxicity against human K562 cells assessed as growth inhibition at 20 uM after 40 hrs by MTT assay relative to control; type: functional; conditions: K562, 40 h, read-out: GI; outline: as §1
[5] = Cytotoxicity against human PC3 cells assessed as growth inhibition at 20 uM after 40 hrs by MTT assay relative to control; type: functional; conditions: PC-3, 40 h, read-out: GI; outline: as §1

Row | Structure (SMILES) | inhibition (Tubulin (Homo sapiens)) [%] | inhibition [2] [%] | inhibition [3] [%] | inhibition of growth at 20 µM [1] [%] | inhibition of growth at 20 µM [4] [%] | inhibition of growth at 20 µM [5] [%]
1 | CCCC(Nc1cncc(-c2ccc(NC(=O)NCC)c(CC)c2)n1)c1cccnc1 (centres undefined) | > 50 | – | – | – | – | > 50
2 | CCCC(Nc1cncc(-c2ccc(CN)cc2)n1)c1ccccc1 (centres undefined) | > 50 | – | – | – | – | > 50
3 | CCC[C@H](Nc1nc(-c2ccc(NC(=O)NCC)c(OC)c2)ncc1C)c1cccnc1 [LEXIBULIN] | > 50 | – | – | – | – | > 50
4 | CCCC(Nc1cncc(-c2ccc(OCCCCN3CCCCC3)c(OC)c2)n1)c1ccccc1 (centres undefined) | > 50 | – | – | – | – | > 50
5 | CCNC(=O)Nc1ccc(-c2ncc(C)c(N[C@@H](CC)c3cccnc3)n2)cc1OC | > 50 | – | – | – | – | > 50
6 | CCCC(Nc1cncc(-c2ccc(CNC(=O)C3CCNCC3)cc2)n1)c1ccccc1 (centres undefined) | > 50 | – | – | – | – | > 50

Second part, led by results:

Row | inhibition (Tubulin (Homo sapiens)) [%] | inhibition [2] [%] | inhibition [3] [%] | Structure (SMILES) | inhibition of growth at 20 µM [1] [%] | inhibition of growth at 20 µM [4] [%] | inhibition of growth at 20 µM [5] [%]
7 | > 50 | > 50 | > 50 | CCC[C@H](Nc1cncc(-c2ccc(NC(=O)NC)c(OC)c2)n1)c1ccccn1 | > 50 | > 50 | > 50
8 | > 50 | – | – | CCCC(Nc1cncc(-c2ccc(O)c(OC)c2)c1)c1ccccc1 (centres undefined) | – | – | > 50
9 | > 50 | – | – | CCCC(Nc1cncc(-c2ccc(CN)c(OC)c2)n1)c1cccnc1 (centres undefined) | – | – | > 50
10 | > 50 | – | – | CCC[C@H](Nc1cncc(-c2ccc(NC(=O)NCC)c(OC)c2)n1)c1ccccn1 | – | – | > 50
11 | > 50 | – | – | CCCC(Nc1cncc(-c2ccc(NC(=O)NCC)c(OC)c2)n1)c1cccc(F)c1 (centres undefined) | – | – | > 50
12 | > 50 | – | – | CCC[C@H](Nc1nc(-c2ccc(O)c(OC)c2)ncc1C)c1cccnc1 | – | – | > 50
13 | > 50 | – | – | CCCC(Nc1cncc(-c2ccc(NC(=O)NCC)c(OC)c2)n1)c1cnccc1C (centres undefined) | – | – | > 50
14 | > 50 | > 50 | > 50 | COc1cc(-c2cncc(NC(C)c3cccc(NC(=O)c4ccncc4)c3)n2)ccc1O (centres undefined) | > 50 | – | –
